# Patent publication US9676758B2, “1-heteroaryl-indoline-4-carboxamides as modulators of GPR52 useful for the treatment or prevention of disorders related thereto” (Arena Pharmaceuticals, Inc., priority 2015, dated 2017)
# pEC50: −log10 of the molar value.
# Molecular target: T1, recombinant GPR52 (Homo sapiens, UniProt Q9Y2T5)
# T1 construct: expressed in transfected cells
# Experiment: HTRF cAMP assay for direct cAMP measurement
# Format: cell-based
# Conditions: mean EC50; CHO-K1 or HEK293 cells stably expressing recombinant GPR52
# Description: HTRF cAMP assays were performed using commercially available assay kits according to the manufacturer's instructions (cAMP Dynamic 2 Assay Kit; #62AM4PEJ, Cisbio Bioassays, Bedford, Mass.). CHO-K1 or HEK293 cells stably expressing recombinant GPR52 were harvested and resuspended in assay buffer (PBS containing 0.5 mM IBMX and 0.1% BSA) at a density of 1.2×10^6 cells per mL. […] Test compounds were solubilized and serially diluted in DMSO using 5-fold dilutions to generate 10-point dose response curves. These serially diluted samples were then further diluted in PBS to achieve a 2× stock. The diluted compounds were transferred to triplicate assay plates (5 μL per well to achieve the 1× final assay concentration). A positive control was included in each assay run. After one-hour incubation at room temperature, 5 μL of cAMP D2 reagent diluted in lysis buffer was added to each well, followed by 5 μL of cryptate reagent. Plates were then incubated at room temperature for one hour prior to reading. Time-resolved fluorescence measurements were collected on an HTRF-capable plate reader (e.g., EnVision® (PerkinElmer, Waltham, Mass.) or PHERAstar (BMG LABTECH, Cary, N.C.)). Counts from the plate reader were fit to the cAMP standard curve included on each plate to determine the amount of cAMP in each test well. Dose-response curves were generated from the cAMP data and analyzed using a nonlinear least squares curve-fitting program to obtain EC50 values.
# T1 sequence (Q9Y2T5 whole entry): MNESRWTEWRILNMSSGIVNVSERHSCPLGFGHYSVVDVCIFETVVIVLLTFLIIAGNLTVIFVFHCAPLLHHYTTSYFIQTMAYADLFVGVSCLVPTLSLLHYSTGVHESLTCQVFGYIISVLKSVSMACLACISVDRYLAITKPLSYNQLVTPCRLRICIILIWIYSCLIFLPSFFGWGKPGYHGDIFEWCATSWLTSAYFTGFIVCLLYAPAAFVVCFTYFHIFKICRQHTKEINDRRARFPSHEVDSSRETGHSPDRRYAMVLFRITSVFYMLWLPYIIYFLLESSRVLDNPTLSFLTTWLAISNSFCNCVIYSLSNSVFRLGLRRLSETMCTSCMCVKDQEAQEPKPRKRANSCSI
row,pEC50,SMILES
1,7.67,"CC(=O)Oc1cccc(Cc2ccnc(N3CCc4c(C(N)=O)cccc43)c2)c1 [Compound 102, 3-((2-(4-Carbamoylindolin-1-yl)pyridin-4-yl)methyl)phenyl acetate]"
2,7.44,"NC(=O)c1cccc2c1CCN2c1cc(Cc2ccc(F)c(CO)c2)ccn1 [Compound 63, 1-(4-(4-Fluoro-3-(hydroxymethyl)benzyl)pyridin-2-yl)indoline-4-carboxamide]"
3,7.74,"O=C(NCCN1CCNC1=O)c1cccc2c1CCN2c1cc(Cc2cc(F)c(F)c(F)c2)ccn1 [Compound 133, N-(2-(2-Oxoimidazolidin-1-yl)ethyl)-1-(4-(3,4,5-trifluorobenzyl)pyridin-2-yl)indoline-4-carboxamide]"
4,7.80,"CC(=O)c1ccc(Cc2ccnc(N3CCc4c(C(N)=O)cccc43)c2)cc1 [Compound 55, 1-(4-(4-Acetylbenzyl)pyridin-2-yl)indoline-4-carboxamide]"
5,7.96,"COc1ccc(Cc2ccnc(N3CCc4c3ccc(F)c4C(=O)NCCNC(C)=O)c2)cc1F [Compound 164, N-(2-Acetamidoethyl)-5-fluoro-1-(4-(3-fluoro-4-methoxybenzyl)pyridin-2-yl)indoline-4-carboxamide]"
6,7.99,"O=C(N[C@H]1CCOC1)c1cccc2c1CCN2c1ccnc(Cc2cccc(C(F)(F)F)c2)c1 [Compound 3, (S)-N-(Tetrahydrofuran-3-yl)-1-(2-(3-(trifluoromethyl)benzyl)pyridin-4-yl)indoline-4-carboxamide]"
7,7.44,"NC(=O)c1cccc2c1CCN2c1cc(Cc2ccc(O)c(F)c2)ccn1 [Compound 97, 1-(4-(3-Fluoro-4-hydroxybenzyl)pyridin-2-yl)indoline-4-carboxamide]"
8,8.28,"O=C(N[C@H]1CCOC1)c1cccc2c1CCN2c1cncc(Cc2cccc(C(F)(F)F)c2)c1 [Compound 7, (S)-N-(Tetrahydrofuran-3-yl)-1-(5-(3-(trifluoromethyl)benzyl)pyridin-3-yl)indoline-4-carboxamide]"
9,8.13,"CNC(=O)c1cccc2c1CCN2c1cncc(Cc2cccc(C(F)(F)F)c2)c1 [Compound 9, N-Methyl-1-(5-(3-(trifluoromethyl)benzyl)pyridin-3-yl)indoline-4-carboxamide]"
10,7.76,"Cc1cc(Cc2ccnc(N3CCc4c(C(N)=O)cccc43)c2)cnc1F [Compound 50, 1-(4-((6-Fluoro-5-methylpyridin-3-yl)methyl)pyridin-2-yl)indoline-4-carboxamide]"
11,7.21,"NC(=O)c1cccc2c1CCN2c1cc(Cc2cnc3ccccc3c2)ccn1 [Compound 111, 1-(4-(Quinolin-3-ylmethyl)pyridin-2-yl)indoline-4-carboxamide]"
12,6.85,"O=C(N[C@@H]1CCOC1=O)c1cccc2c1CCN2c1cc(Cc2cc(F)c(F)c(F)c2)ccn1 [Compound 135, (R)-N-(2-Oxotetrahydrofuran-3-yl)-1-(4-(3,4,5-trifluorobenzyl)pyridin-2-yl)indoline-4-carboxamide]"
13,7.64,"NC(=O)c1cccc2c1CCN2c1cc(Cc2cccc(OC(F)(F)F)c2)ccn1 [Compound 64, 1-(4-(3-(Trifluoromethoxy)benzyl)pyridin-2-yl)indoline-4-carboxamide]"
14,7.91,"O=C(N[C@H]1CCOC1)c1cccc2c1CCN2c1cc(Cc2cccc(C(F)(F)F)c2)ccn1 [Compound 4, (S)-N-(Tetrahydrofuran-3-yl)-1-(4-(3-(trifluoromethyl)benzyl)pyridin-2-yl)indoline-4-carboxamide]"
15,7.66,"COC[C@@H](O)CNC(=O)c1cccc2c1CCN2c1ccnc(Cc2cc(F)c(F)c(F)c2)c1 [Compound 189, (S)-N-(2-Hydroxy-3-methoxypropyl)-1-(2-(3,4,5-trifluorobenzyl)pyridin-4-yl)indoline-4-carboxamide]"
16,7.09,"Cc1cc(Cc2cccc(C(F)(F)F)c2)cc(N2CCc3c(C(N)=O)cccc32)n1 [Compound 17, 1-(6-Methyl-4-(3-(trifluoromethyl)benzyl)pyridin-2-yl)indoline-4-carboxamide]"
17,7.74,CNC(=O)CCNC(=O)c1cccc2c1CCN2c1cc(Cc2cc(F)c(F)c(F)c2)ccn1 [Compound 172]
18,7.43,"O=C(NC[C@H](O)c1cccnc1)c1cccc2c1CCN2c1cc(Cc2cc(F)c(F)c(F)c2)ccn1 [Compound 148, (R)-N-(2-Hydroxy-2-(pyridin-3-yl)ethyl)-1-(4-(3,4,5-trifluorobenzyl)pyridin-2-yl)indoline-4-carboxamide]"

row,pEC50,SMILES
1,8.97,"COc1ccc(Cc2ccnc(N3CCc4c(C(=O)NC5CCN(CCO)CC5)cccc43)c2)cc1F [Compound 91, 1-(4-(3-Fluoro-4-methoxybenzyl)pyridin-2-yl)-N-(1-(2-hydroxyethyl)piperidin-4-yl)indoline-4-carboxamide]"
2,6.51,"COCC(COC)NC(=O)c1cccc2c1CCN2c1cc(Cc2cc(F)c(F)c(F)c2)ccn1 [Compound 131, N-(1,3-Dimethoxypropan-2-yl)-1-(4-(3,4,5-trifluorobenzyl)pyridin-2-yl)indoline-4-carboxamide]"
3,6.37,"NC(=O)c1cccc2c1CCN2c1cc(Sc2cccc(C(F)(F)F)c2)ccn1 [Compound 30, 1-(4-(3-(Trifluoromethyl)phenylthio)pyridin-2-yl)indoline-4-carboxamide]"
4,7.93,"N#Cc1cc(Cc2ccnc(N3CCc4c(C(N)=O)cccc43)c2)ccc1F [Compound 60, 1-(4-(3-Cyano-4-fluorobenzyl)pyridin-2-yl)indoline-4-carboxamide]"
5,7.97,"CC(=O)c1cc(Cc2ccnc(N3CCc4c(C(=O)NCCO)cccc43)c2)ccc1F [Compound 77, 1-(4-(3-Acetyl-4-fluorobenzyl)pyridin-2-yl)-N-(2-hydroxyethyl)indoline-4-carboxamide]"
6,8.17,"CN(C)CC(O)CNC(=O)c1cccc2c1CCN2c1cc(Cc2cc(F)c(F)c(F)c2)ccn1 (stereo not drawn) [Compound 158, N-(3-(Dimethylamino)-2-hydroxypropyl)-1-(4-(3,4,5-trifluorobenzyl)pyridin-2-yl)indoline-4-carboxamide]"
7,6.65,"CNC(=O)c1cc(Cc2ccnc(N3CCc4c(C(N)=O)cccc43)c2)ccc1F [Compound 59, 1-(4-(4-Fluoro-3-(methylcarbamoyl)benzyl)pyridin-2-yl)indoline-4-carboxamide]"
8,6.22,"O=C(NCCO)c1cccc2c1CCN2c1cncc(Cc2cccc(C(F)(F)F)c2)n1 [Compound 38, N-(2-Hydroxyethyl)-1-(6-(3-(trifluoromethyl)benzyl)pyrazin-2-yl)indoline-4-carboxamide]"
9,8.01,"O=C(Nc1cnn(CCO)c1)c1cccc2c1CCN2c1cc(Cc2cc(F)c(F)c(F)c2)ccn1 [Compound 118, N-(1-(2-Hydroxyethyl)-1H-pyrazol-4-yl)-1-(4-(3,4,5-trifluorobenzyl)pyridin-2-yl)indoline-4-carboxamide]"
10,8.07,"COc1ccc(Cc2ccnc(N3CCc4c(C(=O)NCCOCCO)cccc43)c2)cc1F [Compound 205, 1-(4-(3-fluoro-4-methoxybenzyl)pyridin-2-yl)-N-(2-(2-hydroxyethoxy)ethyl)indoline-4-carboxamide]"
11,8.26,"COc1ccc(Cc2ccnc(N3CCc4c(C(=O)NCCF)cccc43)c2)cc1F [Compound 203, 1-(4-(3-fluoro-4-methoxybenzyl)pyridin-2-yl)-N-(2-fluoroethyl)indoline-4-carboxamide]"
12,7.01,"O=C(NCCO)c1cccc2c1CCN2c1cc(Oc2cc(F)cc(C(F)(F)F)c2)ccn1 [Compound 23, 1-(4-(3-Fluoro-5-(trifluoromethyl)phenoxy)pyridin-2-yl)-N-(2-hydroxyethyl)indoline-4-carboxamide]"
13,7.25,"O=C(NCC1(CO)COC1)c1c(F)ccc2c1CCN2c1cc(Cc2cc(F)c(F)c(F)c2)ccn1 [Compound 155, 5-Fluoro-N-((3-(hydroxymethyl)oxetan-3-yl)methyl)-1-(4-(3,4,5-trifluorobenzyl)pyridin-2-yl)indoline-4-carboxamide]"
14,6.97,"O=C(N[C@H]1CCOC1)c1cccc2c1CCN2c1cccc(Cc2cccc(C(F)(F)F)c2)n1 [Compound 2, (S)-N-(Tetrahydrofuran-3-yl)-1-(6-(3-(trifluoromethyl)benzyl)pyridin-2-yl)indoline-4-carboxamide]"
15,7.50,"COC[C@@H](O)CNC(=O)c1cccc2c1CCN2c1cc(Cc2cc(F)cc(Cl)c2)ccn1 [Compound 168, (S)-1-(4-(3-Chloro-5-fluorobenzyl)pyridin-2-yl)-N-(2-hydroxy-3-methoxypropyl)indoline-4-carboxamide]"
16,7.41,"NC(=O)c1cccc2c1CCN2c1cc(Cc2cc3ccccc3o2)ccn1 [Compound 119, 1-(4-(Benzofuran-2-ylmethyl)pyridin-2-yl)indoline-4-carboxamide]"
17,7.21,"NC(=O)c1cccc2c1CCN2c1cc(Cc2cnc(F)c(F)c2)ccn1 [Compound 49, 1-(4-((5,6-Difluoropyridin-3-yl)methyl)pyridin-2-yl)indoline-4-carboxamide]"
18,6.67,"NC(=O)c1cccc2c1CCN2c1cc(Cc2ccc3c(c2)OCCCO3)ccn1 [Compound 96, 1-(4-((3,4-Dihydro-2H-benzo[b][1,4]dioxepin-7-yl)methyl)pyridin-2-yl)indoline-4-carboxamide]"
